Results on one compound are retold here after patent US12390537B2, “Compositions of polymeric microdevices and methods of use thereof in cancer immunotherapy” (Massachusetts Institute of Technology, priority 2020, dated 2025).

In one series the test system is IFNγ+CD8+ T cells. In words: Flow cytometry of IFNγ+CD8+ T cells in serum, B16F10 model. The class given is in vivo, mice. As for the experimental part:
To stain the intracellular marker, e.g., IFN-γ, cells were pre-stimulated with cell stimulation cocktail (eBioscience, cat. no. 00-4970-93) for 4-6 h, fixed and permeabilized using fixation/permeabilization solution kit (BD, cat. no. 554714), and then stained with both anti-IFN-γ and other surface antibodies. […] Flow cytometry data were acquired on an LSRFortessa cell analyzer (BD) and analyzed using FlowJo software.
To study whether activation of STING in the TME triggers systemic antitumor immunity, mouse serum was collected from the antitumor efficacy study of B16F10 melanoma model (FIG. 3D) 21 and 28 days after tumor inoculation and analyzed by flow cytometry. cGAMP-MPs and 4×cGAMP-S treatments increased 5.1- and 4.9-fold of IFNγ+CD8+ T cells in serum at day 21 compared to the untreated group (FIG. 5A). […]
Background: Flow cytometry measures light scatter and fluorescence of single cells or particles in a stream.

Another series has as its system B16F10 tumor recurrence. In words: Treatment of surgically removed B16F10 tumor and re-challenge. The class given is in vivo, mice. An excerpt:
2×10^5 B16F10 cells were subcutaneously injected to the right rear flank of C57BL/6 female mice. Six days after tumor inoculation, B16F10 tumor-bearing mice were randomly divided into 4 experimental groups (n=8 for each group): untreated, 1×cGAMP-S plus EPs, 3×cGAMP-S, and 1×cGAMP-S plus cGAMP-MPs, respectively. ˜99% of tumor volume was surgically removed, leaving ˜1% residual tumor to mimic residual microtumors. Upon the removal of tumors, cGAMP-MPs (10m of cGAMP-S, 5 PLGA-1 microdevices containing 10 μg of cGAMP, and 5 PLGA-2 microdevices containing 10 μg of cGAMP) or 1×cGAMP-S plus EPs (10m of cGAMP-S, 5 each of empty PLGA-1 and PLGA-2 microdevices) in 50 μL MC solution were directly applied to the surgical bed through a micropipette. For 3×cGAMP-S treated group, 10 μg of cGAMP-S was applied to the surgical bed after surgery followed by intratumoral injections of 10 μg of cGAMP at days 4 and 8 post-surgery (FIG. 6A). The wound was closed by an autoclip wound clip system. Tumor size was measured with a digital caliper every other day starting at day 7 post tumor inoculation. For the re-challenge experiment, 2×10^5 B16F10 cells were subcutaneously injected to the left rear flank of treated mice with complete responses. Tumor size was measured every other day with a digital caliper.

Series [1] concerns ecto-nucleotide pyrophosphatase/phosphodiesterase 1 (ENPP1). The conditions noted are these: versus naturally produced 2′3′-cGAMP; Kato K. et al.; cited from earlier work.

Take `Nc1nc2c(ncn2[C@@H]2O[C@@H]3COP(=O)(O)O[C@H]4[C@@H](O)[C@H](n5cnc6c(N)ncnc65)O[C@@H]4COP(=O)(O)O[C@H]3[C@H]2O)c(=O)[nH]1` [cGAMP-S, 3′3′-cGAMP]: in the series on IFNγ+CD8+ T cells (day 21, cGAMP-MPs single injection, cGAMP-S four injections), the “increase of IFNγ+CD8+ T cells in serum compared to untreated” value is 4.9 fold. In the series with IFNγ+CD8+ T cells (day 28 versus day 21), the “number of IFNγ+CD8+ T cells in serum” value is reported as “remained at an identical level”. Further, the tumor recurrence rate in the series on B16F10 tumor recurrence (cGAMP-MPs single application, cGAMP-S three doses, untreated 100%) came to 25%; in the series on B16F10 tumor recurrence (single dose of cGAMP-S plus EPs) it was 87.5%. Moreover, the survival after re-challenge result in the series with B16F10 tumor recurrence (tumor-free mice re-challenged with B16F10 cells) is given as “prolonged survival time”. Further, in the series with B16F10 tumor recurrence (tumor-free mice re-challenged with B16F10 cells at day 60), the “tumor growth after re-challenge versus naïve mice” value was “significantly slower”. The “stability against ENPP1” value in series [1] is listed as “enhanced stability”.
